Data on one compound can be found in ChEMBL document CHEMBL6109151, “Discovery of a Novel Dihydroisoquinolinone Derivative as a Potent CDK9 Inhibitor Capable of Overcoming L156F Mutant for the Treatment of Hematologic Malignancies” (J Med Chem, 2025).

Common to all, as to settings: male, Sprague-Dawley, rat, iv, 1 mg/kg
The nature of series [1]: in vivo.
Series [2] in a line: in vivo. This is another data set of the same source.
A short description of series [3]: in vivo. The source holds these as a separate data set.
Series [4] is described as follows: in vivo. The source holds these as a separate data set.

For `COc1cc(F)ccc1-c1cc(Nc2cc(CS(C)(=N)=O)ccn2)ncc1F` (centres undefined) [ENITOCICLIB], in “in vivo [1]”, the AUC(0-t) at 8 h is 1190 ng·h/mL. In addition, the Vd at 8 h in the series “in vivo [2]” came to 1.11 L/kg. The compound further showed a half-life at 8 h in the series “in vivo [3]” of 66 min. The same compound had a clearance at 8 h in “in vivo [4]” of 14 mL/min/kg.
